In the NIST ThermoML archive (doi:10.1016/j.jct.2017.10.014):

Details: Liquid; for mass density: 100 kPa, Vibrating tube method; for viscosity: 101.33 kPa, Concentric cylinders viscometry

CC(C)(CO)[C@@H](O)C(=O)NCCCO [d-Panthenol]
Details	mass density [kg/m3]	viscosity [mPa·s]
293.15 K	1165.18	527287
298.15 K	1161.68	261544
303.15 K	1158.27	125673
308.15 K	1154.96	68487
313.15 K	1151.46	37252
